Reference: patent US20050165109A1, “Pharmaceutical composition with combined active agents and methods for using the same” (priority 2002, published 2005)

Assays:
[1] = test system: ob/ob mice; assay: Plasma glucose in ob/ob mice, metformin/gemfibrozil, oral once a day for 3 days; type: in vivo; conditions: for Effect on plasma glucose concentrations (in words) / Glucose levels Day 3: ob/ob mice; for Effect on plasma glucose concentrations (in words): 3 days oral, versus vehicle; for Difference between Vehicle & treatment: plasma glucose Day 3, ob/ob mice; for Difference between Vehicle & treatment / Glucose levels Day 3: metformin 90 mg/kg, gemfibrozil 100 mg/kg; for Glucose levels Day 3: plasma glucose, oral once a day for 3 days
Description: (§1) Experiment was conducted in ob/ob mice, an animal model of diabetes. Male, 8-9 week old ob/ob mice were purchased from Jackson Laboratory (Bar Harbor, Me.) and housed in a temperature and humidity controlled room with 12 hour light (6 am to 6 pm)/dark (6 pm-6 am) cycle and ad libitum of water and regular Purina chow. Animals were screened for plasma glucose levels and randomized into groups for experiments.
In this experiment, 8 animals were orally dosed with vehicle, metformin (90 mg/kg), gemfibrozil (100 mg/kg), or combination of metformin (90 mg/kg) and gemfibrozil (100 mg/kg) once a day for 3 days. Plasma glucose concentrations were determined at the end of the experiment.

[2] = literature: WO 99/40904, U.S. Pat. No. 5,304,575, Vuorinen-Markkola 1993, Hernandez-Mijares 2000; cited from earlier work
[3] = test system: ob/ob mice; assay: Plasma glucose in ob/ob mice, metformin/ciprofibrate, oral once a day for 4 days; type: in vivo; conditions: for Effect on plasma glucose concentrations (in words) / Glucose levels Day 4: ob/ob mice; for Effect on plasma glucose concentrations (in words): 4 days oral, versus vehicle; for Difference between Vehicle & treatment: plasma glucose Day 4, ob/ob mice; for Difference between Vehicle & treatment / Glucose levels Day 4: metformin 90 mg/kg, ciprofibrate 2.5 mg/kg; for Glucose levels Day 4: plasma glucose, oral once a day for 4 days
Description: as §1
Experiment was conducted in ob/ob mice. The experimental condition was the same as Working Example 1.
In this experiment, 8 animals were orally dosed with vehicle, metformin (90 mg/kg), ciprofibrate (2.5 mg/kg), or combination of metformin (90 mg/kg) and ciprofibrate (2.5 mg/kg) once a day for 4 days. Plasma glucose concentrations were determined at the end of the experiment.

Cc1ccc(C)c(OCCCC(C)(C)C(=O)O)c1 [Gemfibrozil, gemfibrozil]
Effect on plasma glucose concentrations (in words) [1]: did not have significant effect on glucose level
Effect on plasma glucose concentrations (in words) ([1]; listed as gemfibrozil): minimum reduction of plasma glucose and it was not statistically significant
Difference between Vehicle & treatment [1]: -57.1 mg/dL
Glucose levels Day 3 [1]: 349.7 ± 39.0 mg/dL
Glucose-lowering effect (in words) [2]: lack of glucose-lowering effect

CN(C)C(=N)N=C(N)N [Metformin, metformin]
Effect on plasma glucose concentrations (in words) [1]: significantly reduced plasma glucose concentrations
Difference between Vehicle & treatment [1]: -88.2 mg/dL
Glucose levels Day 3 [1]: 318.6 ± 29.3 mg/dL
Effect on plasma glucose concentrations (in words) [3]: significantly reduced plasma glucose concentrations
Difference between Vehicle & treatment [3]: -84.1 mg/dL
Glucose levels Day 4 [3]: 299.2 ± 24.9 mg/dL

CC(C)(Oc1ccc(C2CC2(Cl)Cl)cc1)C(=O)O (stereo not shown) [Ciprofibrate, ciprofibrate]
Effect on plasma glucose concentrations (in words) [3]: did not have significant effect on glucose levels
Effect on plasma glucose concentrations (in words) ([3]; listed as ciprofibrate): minimum effect on reducing plasma glucose and it was not statistically significant
Difference between Vehicle & treatment [3]: -32.2 mg/dL
Glucose levels Day 4 [3]: 351.1 ± 23.1 mg/dL
Glucose-lowering effect (in words) [2]: lack of glucose-lowering effect
